Measurements reported in PubChem BioAssay AID1625 (Sanford-Burnham Center for Chemical Genomics, 2009).
The source made the active and inactive calls.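 How the source made its calls: active means z-score above 3 at 5 µM with at least 500 cells counted in the well; inconclusive means wells under 500 cells, flagged as cytotoxic or low count; inactive means the rest.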

Tested on: MIN6 insulin promoter-GFP reporter, high-content imaging
Assay: insulin promoter activators in MIN6 cells, imaging, high-content screening, mouse beta cells (AID 1625)

Structure (SMILES) | EC50
CCOC(=O)CN1C(=O)S/C(=C/c2ccc(N3CCCCC3)o2)C1=O | 8.3 µM
N#C/C(=C\c1ccc(-c2ccc(C(=O)O)cc2)o1)c1nc2ccccc2[nH]1 | > 16 µM (inactive)
Cc1cc(N2CCCC2)ccc1/C=C1\NC(=S)N(C)C1=O | 9.87 µM
CN1/C(=C\C=C(/C#N)C(=O)Nc2ccccc2F)C(C)(C)c2ccccc21 | > 16 µM (inactive)
CCOC(=O)N1CCN(S(=O)(=O)c2ccc3c(c2)oc(=O)n3C)CC1 | > 16 µM (inactive)
COC(=O)c1cc2c(-c3ccccc3)c(C)c3ccccn3c-2c1C(=O)OC | > 16 µM (inactive)
CC(C)N1CCc2c(sc(NC(=O)c3cc4cc([N+](=O)[O-])ccc4s3)c2C(N)=O)C1 | > 16 µM (inactive)
Cc1ccc(-c2cn3nc(-c4ccccc4)c(-c4ccccc4)nc3n2)cc1 | 12.4 µM (inactive)
N#CC(C#N)=C1C=C2C=C(N3CCCCC3)CCC2CC1 (stereo unspecified) | 0.643 µM
COc1cc(/C=C(\C#N)c2nc3ccccc3o2)ccc1O | > 16 µM (inactive)
CCOC(=O)CC1C(=O)NCCN1c1nc2ccc(C)cn2c(=O)c1/C=C1\SC(=S)N(C(C)CC)C1=O (stereo unspecified) | 0.748 µM
CN1C(=O)C(=Cc2ccc(N3CCCCC3)o2)C(=O)N(C)C1=S | > 16 µM (inactive)
CCN(CC)c1ccc(/C=C(/C#N)C(=O)NC(C)C)o1 | > 16 µM (inactive)
CCCN1C(=O)/C(=C/C=C2\N(CC)c3ccccc3C2(C)C)SC1=S | > 16 µM (inactive)
CCCN1C=CC(=C/C=C(\C#N)C(=O)OCC)C=C1 | > 16 µM (inactive)
Nc1c(C(=O)c2ccccc2)sc2nsc(SCCN3CCCC3)c12 | 8.41 µM
CC(=O)n1c(C=Nc2ccccc2)c(O)c2ccccc21 | 10.1 µM (inactive)
N#C/C(=C\c1ccc(N2CCOCC2)o1)C(=O)NCCc1ccccc1 | > 16 µM (inactive)
CCN1/C(=C/c2ccc3cc(C)ccc3[n+]2CC)Sc2ccccc21 | 1.1 µM
COc1cc(OC)c(OC)cc1/C=C1\Oc2cc(OS(C)(=O)=O)ccc2C1=O | > 16 µM (inactive)
CCN1CCc2c(sc(NC(=O)Nc3ccc(Cl)c(Cl)c3)c2C(N)=O)C1 | 1.4 µM
COc1cc(N2CCCC2)c(OC)cc1/C=C(/C#N)c1cccc(F)c1 | > 16 µM (inactive)
CCCCNc1ccc2c3c(cccc13)C(=O)N(CCCC)C2=O | 1.69 µM
O=S(=O)([O-])CCC[n+]1c(/C=C\Nc2ccccc2)oc2ccc(-c3ccccc3)cc21 | 3.34 µM
CC(C)(C)c1ccc(OCC(=O)Nc2ccc3c4c(cccc24)C(=O)NC3=O)cc1 | > 16 µM (inactive)
N#C/C(=C/c1ccc(N2CCOCC2)o1)c1ccc(Cl)cc1 | 9.12 µM

Structure (SMILES) | EC50
CC(=O)c1cc(NC(=O)c2ccc(Cl)cc2)c(=O)oc1/C=C/N(C)C | > 16 µM (inactive)
CCN(CC)c1ccc(/C=N/c2sc3c(c2C#N)C2CCN3CC2)c(O)c1 | 2.83 µM
CN(C)c1ccc(/C=C/C(O)=C2/C(=O)N(C)C3(C)CC2c2ccccc2O3)cc1 (stereo unspecified) | > 16 µM (inactive)
O=C(/C=C/c1ccc(N2CCC(c3ccccc3)=N2)cc1)c1ccccc1 | 2.6 µM
CC(=O)C1=C(C)NC(SCC(=O)c2ccc(Cl)c(Cl)c2)=C(C#N)C1c1ccco1 (stereo unspecified) | > 16 µM (inactive)
O=C(/C=C/c1c[nH]c2ccccc12)c1c(O)n(CCc2ccccc2)c(=O)[nH]c1=O | > 16 µM (inactive)
CCN(CC)c1ccc2cc(C(N)=O)/c(=N\NC(=O)c3ccncc3)oc2c1 | 9.67 µM
O=c1[nH]c2ccccc2nc1/C=C/c1ccc(F)cc1 | > 16 µM (inactive)
CCN1C=CC2=C(C#N)C(N)C(C#N)(C#N)C(c3ccccc3C(F)(F)F)C2C1 (stereo unspecified) | 4.63 µM
N#C/C(=C\c1ccc(N2CCCCC2)o1)C(=O)Nc1cccc(Br)c1 | 0.605 µM
N=c1oc2c3c4c(cc2cc1C(=O)Nc1ccccc1)CCCN4CCC3 | 0.699 µM
CCOc1cc([N+](=O)[O-])cc2c1C(=O)Nc1ccccc1O2 | > 16 µM (inactive)
CN1/C(=C\C=C2/SC(=S)NC2=O)C(C)(C)c2ccccc21 | 9.29 µM
COC(=O)c1cc(NC(=O)c2ccccc2)c(=O)oc1/C=C/Nc1ccc(Oc2ccccc2)cc1 | 6.49 µM
Nc1c(C(=O)c2cccs2)sc2nsc(SCCN3CCCCC3)c12 | 9.62 µM
CN(C)c1ccc(/C=C2\C(=N)N3C(=NC2=O)Sc2cc(S(C)(=O)=O)ccc23)cc1 | > 16 µM (inactive)
CCOc1cc(N(CC)CC)ccc1/C=C(/C#N)c1nc2ccccc2[nH]1 | 4.49 µM
N#Cc1c(NC(=S)NC(=O)c2ccccc2)sc2c1CCN(CCc1ccccc1)C2 | 7.1 µM
O=[N+]([O-])c1ccc(N/N=C/c2cn(Cc3ccc(F)cc3)c3ccccc23)nc1 | > 16 µM (inactive)
Cc1ccc2nc(/C(C#N)=C\c3ccc(N4CCOCC4)o3)[nH]c2c1 | 3.44 µM
CN1/C(=C\C=C2C(=O)NC(=S)NC2=O)C(C)(C)c2ccccc21 | 3.89 µM
N#CC(C#N)=C1C=C2C=C(N3CCOCC3)CCC2CC1 (stereo unspecified) | 2.56 µM
CCCN1C=CC(=CC=C(C#N)C#N)C=C1 | 10.4 µM (inactive)
Cc1cc(N2CCCC2)ccc1/C=C1/C(=O)N(C)C(=S)N1C | > 16 µM (inactive)
CCN1CC=C2C(C#N)=C(N)C(C#N)(C#N)C(CCc3ccccc3)C2C1 (stereo unspecified) | 8.02 µM
CCCN1C(=O)S/C(=C\c2ccc(N3CCOCC3)o2)C1=O | 13.9 µM (inactive)

Structure (SMILES) | EC50
Nc1c(C(=O)c2ccc(Cl)cc2)sc2nsc(SCCN3CCOCC3)c12 | 5.95 µM
CCCN1CC=C2C(C#N)=C(N)C(C#N)(C#N)C(c3cc(OC)ccc3OC)C2C1 (stereo unspecified) | 5.05 µM
CCOCCCNc1nc2c(C)cccn2c(=O)c1/C=C1\SC(=S)N(C(C)CC)C1=O (stereo unspecified) | 4.03 µM
COc1cc(N2CCCC2)c(OC)cc1/C=C(/C#N)c1cccc(Br)c1 | 4.79 µM
COc1ccc2c(c1)NC(c1ccc(N(C)C)cc1)c1cccn1-2 (stereo unspecified) | > 16 µM (inactive)
N#C/C(=C/c1ccc(-c2ccccc2)o1)c1nc(-c2cccs2)cs1 | 0.98 µM
COc1ccc(CN=Cc2[nH]c3ccc(Br)c(Cl)c3c2O)cc1 | > 16 µM (inactive)
COc1ccc2nc(SCC(C)=O)c(C#N)cc2c1 | 8.2 µM
CCCC1C2CN(C(C)C)CC=C2C(C#N)=C(N)C1(C#N)C#N (stereo unspecified) | 5.53 µM
O=C1S/C(=C/c2ccc(N3CCOCC3)o2)C(=O)N1Cc1ccc(F)cc1 | > 16 µM (inactive)
COc1ccccc1N/C=C/c1onc(C)c1[N+](=O)[O-] | 2.22 µM
N#C/C(=C/c1ccc(N2CCOCC2)o1)C(=O)Nc1ccccc1 | 9.79 µM
CCCCn1c(O)c(C(=O)/C=C/c2c[nH]c3ccccc23)c(=O)[nH]c1=O | > 16 µM (inactive)
Cc1ccc(CN=Cc2[nH]c3ccc(Br)c(Cl)c3c2O)cc1 | > 16 µM (inactive)
CN(C)c1ccc(/C=C2\N=C(c3ccc(Cl)c([N+](=O)[O-])c3)NC2=O)cc1 | > 16 µM (inactive)
CCCCOc1ccc(-c2cc(C(F)(F)F)c(C#N)c(SCC(=O)O)n2)cc1 | > 16 µM (inactive)
COc1cccc2sc(NNC(=O)C3=COCCO3)nc12 | > 16 µM (inactive)
CCN(CC)c1ccc(C=C(c2nnnn2-c2ccccc2)c2nnnn2-c2ccccc2)cc1 | > 16 µM (inactive)
CN1/C(=C\C=C(/C#N)C(=O)Nc2ccc(Cl)cc2)C(C)(C)c2ccccc21 | > 16 µM (inactive)
CC(=O)Cc1cc(O)c2ccccc2c1OC(=O)c1ccc(Br)cc1 | > 16 µM (inactive)
CCCCN1C(=O)/C(=C/C=C2\N(C)c3ccccc3C2(C)C)SC1=S | 5.6 µM
Cc1ccc(CNc2ccc3c(c2)OCO3)c(C)c1 | > 16 µM (inactive)
O=c1c(Cl)c2oc3ccccc3nc-2c2ccccc12 | > 16 µM (inactive)
Cc1ccc(S(=O)(=O)CCSc2nc(C)cc(C(F)(F)F)c2C#N)cc1 | > 16 µM (inactive)
CC(C)(C)C(=O)c1sc2nc(-c3cccs3)cc(C(F)(F)F)c2c1N | > 16 µM (inactive)
CCN1CCN(C2=CC3=CC(=C(C#N)C#N)CCC3CC2)CC1 (stereo unspecified) | 2.79 µM

Structure (SMILES) | EC50
CCCN1C(=O)c2cccc3c(N4CCCCC4)ccc(c23)C1=O | > 16 µM (inactive)
CC(=O)c1c(C)[nH]c(-c2ccccc2)nc1=S | 9.08 µM
COc1ccc(CN2C(=O)/C(=C/c3ccc(-c4ccc(Cl)c(C(=O)O)c4)o3)SC2=S)cc1 | 15.4 µM (inactive)
Cc1nnc(NC(=O)c2sc3nc(-c4cccs4)cc(C(F)(F)F)c3c2N)s1 | 9.04 µM
CCCN1CC=C2C(C#N)=C(N)C(C#N)(C#N)C(c3cccc(OC)c3OC)C2C1 (stereo unspecified) | 7.34 µM
Cc1ccc(C(=O)NN2C(=O)/C(=C/c3cn(C)c4ccccc34)SC2=S)cc1 | > 16 µM (inactive)
N#C/C(=C\N1CCN(Cc2ccc3c(c2)OCO3)CC1)c1nc2ccccc2s1 | > 16 µM (inactive)
CCOC(=O)/C(=C\C=C1/Sc2cc(OCC)c(OCC)cc2N1CC)C(C)=O | 6.72 µM
COCCCNc1c2c3c(cccc3[nH]c1=O)C(=O)c1ccccc1-2 | 4.03 µM
CCN1C(=O)/C(=C/C=C2\N(CC)c3cc(S(=O)(=O)N(C)C)ccc3N2c2ccccc2)SC1=S | 6.67 µM
COc1cc(N2CCCC2)c(OC)cc1/C=C1/NC(=S)NC1=O | 4.73 µM
N#Cc1ccc(-c2ccccc2)nc1SCC(=O)c1cccc(Cl)c1 | > 16 µM (inactive)
N#C/C(=C/c1ccc(N2CCCCC2)o1)c1cccc(F)c1 | 8.75 µM
N#C/C(=C/c1ccc(N2CCCCCC2)o1)c1ccc(Cl)cc1 | 10.1 µM (inactive)
CN(C)c1ccc(/C=C2\SC(=O)N(CC(O)Cn3c4ccccc4c4ccccc43)C2=O)cc1 (stereo unspecified) | > 16 µM (inactive)
N#C/C(=C/c1ccc(N2CCCCC2)o1)C(=O)Nc1ccc2ccccc2c1 | 0.564 µM
CCCNC(=O)Cn1c(=O)/c(=C\c2ccc(-c3ccc([N+](=O)[O-])cc3)o2)s/c1=C\C(=O)C(C)(C)C | 0.359 µM
CN1C2CCC1/C(=C/c1cccn1C)C(=O)/C2=C\c1cccn1C | > 16 µM (inactive)
N#Cc1c(C(F)(F)F)cc(-c2ccccc2)nc1SCc1nc(N)nc(N2CCOCC2)n1 | 3.73 µM
CN1CCS/C1=C/C=C1/SC(=S)N(Cc2ccccc2)C1=O | > 16 µM (inactive)
CC(C)/C=C1\CC/C(=C\c2ccc(N(C)C)cc2)C1=O | > 16 µM (inactive)
Cn1c(/C(C#N)=C/c2ccc(-c3ccc(S(N)(=O)=O)cc3)o2)nc2ccccc21 | > 16 µM (inactive)
O=C(O)c1ccccc1N/N=C/c1c(Sc2nnnn2-c2ccccc2)nc2ccccn2c1=O | 5.97 µM
